Reference: article PMC9320607, “Synthesis, Biological Evaluation and Docking Studies of Ring-Opened Analogues of Ipomoeassin F” (Molecules, 2022)
Entries after “also recorded” stand apart in the source; their conditions may differ. Where two headings read alike, the source gives them in different places.

Key:
MDA-MB-231 cells = experiment: Resazurin-based cytotoxicity assay in MDA-MB-231 cells; type: cell-based, human; conditions: for IC50: Homo sapiens
From the text: (§1) To investigate the impact of ring-opening, we first submitted the open-chain analogue 1 [9] to the National Cancer Institute (NCI) 60-cell line screening (Supplementary Material S1) and determined the cytotoxicity of nine newly synthesized open-chain analogues 4–12 (Figure 2, Supplementary Materials S2 and S3) against MDA-MB-231 cells (Table S1). […] Furthermore, the majority of the nine new open-chain analogues were modestly less cytotoxic towards MDA-MB-231 cells when compared to their direct ring-closed counterparts (analogues 13–21 matching with 4–12; Figures S1 and S2 and Table S1).
The human breast cancer cell line (MDA-MB-231) was maintained in a DMEM high glucose culture medium supplemented with 10% (v/v) fetal bovine serum (FBS) and 2 mM L-glutamine. Parental (Sec61α-WT) HCT-116 (human colorectal cancer cells, ATCC, CCL-247) and mutant (Sec61α-G80W) HCT-116 cells were maintained in McCoy’s 5A (modified) medium ((ThermoFisher, Waltham, MA, USA, 16600-082)) supplemented with 10% (v/v) FBS (Gibco, 10500-064) and 100 units/mL penicillin and […] streptomycin (Gibco, cat: 15140-122). All cell lines were maintained in a 5% CO2 humidified incubator at 37 °C. Cytotoxicity assays were performed in triplicate sets as previously described and viable cells were counted using an automated cell counter (Bio-Rad TC20) immediately before each experiment. Compound stock solutions in DMSO (10 mM) were diluted with supplemented culture media (MDA-MB-231 cells: high glucose DMEM; HCT116 Sec61α-WT and Sec61α-G80W cells: McCoy’s (modified) 5A) to make a series of gradient fresh working solutions at equal DMSO percentage immediately prior to each test. First, […] of cells at a cell density of […] (MDA-MB-231 cells) or 2.5 × 10^4 cells/mL (Sec61α-WT or Sec61α-G80W HCT-116 cells) were seeded in black 96-well microtiter plates (Falcon, product 353219; 2500 cells/well) and incubated at 37° C for 24 h. Subsequently, the cells were treated with either […] of the freshly made gradient working solution in a total volume of […]/well (MDA-MB-231 cells) or 25 mL of freshly made gradient in a total volume of […]/well (Sec61α-WT or Sec61α-G80W HCT-116 cells) at 37 °C for 72 h. For MDA-MB-231 cells, the media were discarded and […] fresh medium containing 10% (v/v) alamarBlue HS cell viability reagent (resazurin stock solution) (ThermoFisher, Waltham, MA, USA, A50100) was added to each well. For Sec61α-WT or Sec61α-G80W HCT-116 cells, the media was not discarded and alamarBlue HS cell viability reagent (resazurin stock solution) (ThermoFisher, Waltham, MA, USA, A50100) was added to 10% (v/v). After that, all cells were incubated at 37 °C for a further 1–3 h and the emission of each well at 620 nm was detected using a Synergy H1 Hybrid multi-mode plate reader (BioTek, Agilent Technologies, Palo Alto, CA, USA) at excitation 580 nm. […] IC50 value estimates were determined using nonlinear regression to fit data to a curve of variable slope (four parameters) using the least-squares fitting method. For HCT-116 cell IC50 curves, the top and bottom plateaus were defined as 100% and 23.70% (the mean of all data at 25 µM across all compounds), respectively.

[1] = target: T1, Sec61-mediated protein translocation (membrane integration of Ii) (Canis lupus familiaris, UniProt P38377); experiment: In vitro membrane insertion assay of Ii with ER microsomes; type: biochemical, canine; conditions: for inhibition of in vitro membrane integration of Ii / reduction in Ii membrane integration: 1 µM compound; for inhibition of in vitro membrane integration of Ii: versus DMSO control
T1 construct: cell-free translation system supplemented with ER microsomes derived from canine pancreas; from tissue; host or cells: canine pancreas ER microsomes (nuclease-treated); the Ii substrate was translated in vitro from T7-transcribed RNA
From the text: Having previously established that the principal molecular basis for the cytotoxicity of Ipom-F is its strong, yet reversible, binding to Sec61α and the resultant wide-ranging blockade of Sec61-mediated protein translocation at the ER [13], we sought evidence that this mechanism also underlies the cytotoxic effects of 1 and other open-chain analogues. […] For comparative purposes, we analyzed the effects of 2 [13] and two closed-chain compounds: Ipom-F and the diester-modified analogue 22 [11] in parallel (Figure 3A).
Following the resolution of radiolabeled proteins by SDS-PAGE (Figure 3B), we used the efficiency with which the N-terminal domain of the type II integral membrane protein Ii (short form of HLA class II histocompatibility antigen gamma chain, isoform 1) was N-glycosylated inside the ER lumen as a robust reporter for the authentic membrane integration of this model Sec61-dependent protein client (Figure 3B, right upper panel, 0Gly versus 2 Gly forms).
Linear DNA of the short form of human HLA class II histocompatibility antigen gamma chain (Ii; P04232, […], residues 17–232) or human glycophorin C (GypC; P04921) were generated by PCR and transcribed into RNA using T7 RNA polymerase (Promega). Membrane insertion assays (20 µL, 1 h at 30 °C, containing 6.5% (v/v) nuclease-treated ER microsomes (from stock with OD280 = 44/mL)), endoglycosidase Hf (New England Biolabs) treatment, sample resolution by SDS-PAGE (16% polyacrylamide gels) and gel drying were performed as previously described. Following exposure to a phosphorimaging plate for 24–72 h, radiolabeled products were visualized using a Typhoon FLA-7000 (GE Healthcare, Tokyo, Japan) and the ratio of the signal intensity for the N-glycosylated (XGly) and non-glycosylated (0Gly) forms obtained using AIDA v.5.0 (Raytest Isotopenmeβgeräte). This value was then expressed relative to the matched DMSO control (set to 100%) in order to estimate the mean relative insertion (± SEM) from insertion experiments performed in triplicate (n = 3, biologically independent experiments). IC50 value estimates were determined in Prism 8 (GraphPad, San Diego, CA, USA) using nonlinear regression to fit data to a curve of variable slope (four parameters) using the least-squares fitting method, with the top and bottom plateaus of the curve defined as 100% and 7.67% (the mean of all data at 500 µM across all compounds), respectively.

HCT116 Sec61α-WT cells = experiment: Resazurin-based cell viability assay in HCT116 Sec61α-WT cells; design: species or system human; conditions: for cell death: 50 nM, 72 h; for IC50: Homo sapiens
Protocol: Parental (Sec61α-WT) […] All cell lines were maintained in a 5% CO2 humidified incubator at 37 °C. Cytotoxicity assays were performed in triplicate sets as previously described and viable cells were counted using an automated cell counter (Bio-Rad TC20) immediately before each experiment. Compound stock solutions in DMSO (10 mM) were diluted with supplemented culture media (MDA-MB-231 cells: high glucose DMEM; HCT116 Sec61α-WT and Sec61α-G80W cells: McCoy’s (modified) 5A) to make a series of gradient fresh working solutions at equal DMSO percentage immediately prior to each test. […] For MDA-MB-231 cells, the media were discarded and […] fresh medium containing 10% (v/v) alamarBlue HS cell viability reagent (resazurin stock solution) (ThermoFisher, Waltham, MA, USA, A50100) was added to each well. For Sec61α-WT or Sec61α-G80W HCT-116 cells, the media was not discarded and alamarBlue HS cell viability reagent (resazurin stock solution) (ThermoFisher, Waltham, MA, USA, A50100) was added to 10% (v/v). After that, all cells were incubated at 37 °C for a further 1–3 h and the emission of each well at 620 nm was detected using a Synergy H1 Hybrid multi-mode plate reader (BioTek, Agilent Technologies, Palo Alto, CA, USA) at excitation 580 nm. […] IC50 value estimates were determined using nonlinear regression to fit data to a curve of variable slope (four parameters) using the least-squares fitting method.

NCI 60-cell line = NCI 60-cell line screening; type: cell-based, human; conditions: for GI50: Homo sapiens, read-out: average GI50
From the text: as §1

[2] = MDA-MB-231, MDA-MB-231 cells, at least three independent experiments, read-out: IC50 ± SD, ring-open
[3] = Table 1, Ii membrane integration, read-out: In Vitro Translocation Inhibition (IC50)
[4] = HCT-116, Table 1, HCT116 Sec61α-WT cells, read-out: Cytotoxicity HCT-116 Cells (IC50)
[5] = MDA-MB-231, 72 h, MDA-MB-231 cells, 72 h, read-out: IC50 (cytotoxicity)

T1 sequence (P60058 whole entry): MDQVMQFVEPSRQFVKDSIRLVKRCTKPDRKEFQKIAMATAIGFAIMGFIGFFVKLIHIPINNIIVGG
T1 sequence (P38377 2-476): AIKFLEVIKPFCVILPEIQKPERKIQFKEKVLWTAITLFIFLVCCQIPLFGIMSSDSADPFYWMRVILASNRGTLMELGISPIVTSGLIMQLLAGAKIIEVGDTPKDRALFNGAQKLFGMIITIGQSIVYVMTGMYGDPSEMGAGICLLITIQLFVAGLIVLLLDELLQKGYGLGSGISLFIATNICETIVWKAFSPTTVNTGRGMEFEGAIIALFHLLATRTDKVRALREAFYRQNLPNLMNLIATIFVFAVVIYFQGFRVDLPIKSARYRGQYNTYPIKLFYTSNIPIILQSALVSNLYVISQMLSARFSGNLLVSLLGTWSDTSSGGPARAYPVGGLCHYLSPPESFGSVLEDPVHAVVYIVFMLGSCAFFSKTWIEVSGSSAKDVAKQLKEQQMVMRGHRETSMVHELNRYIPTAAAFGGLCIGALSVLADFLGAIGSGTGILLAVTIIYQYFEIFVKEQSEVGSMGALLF
T1 sequence (P60467 2-96, further chain): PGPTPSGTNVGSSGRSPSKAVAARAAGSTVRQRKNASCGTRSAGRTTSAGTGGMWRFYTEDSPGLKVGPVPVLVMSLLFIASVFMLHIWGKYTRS

inhibition of in vitro membrane integration of Ii [1] | IC50 [1, 3] [nM] | SMILES | IC50 (MDA-MB-231 cells; [2]) [nM] | cell death (HCT116 Sec61α-WT cells; HCT116 Sec61α-WT cells) | IC50 (HCT116 Sec61α-WT cells; [4]) [nM] | IC50 (MDA-MB-231 cells; [5]) [nM] | other results
 |  | C=CCCCC(=O)CCC(=O)OCC1OC(OC2C(OC(CC=C)CCCCC)OC(C)C(OC(C)=O)C2O)C(O)C(OC(=O)C(C)=CC)C1O (centres unmarked) [analogue 12] | 5600 |  |  |  | 
efficiently, albeit variably, inhibited | 334 | C/C=C(\C)C(=O)O[C@@H]1[C@@H](O)[C@@H]2O[C@H]3[C@H](O[C@@H](CCCCC)CCCCCOC(=O)CCC(=O)OC[C@@H](O2)[C@H]1OC(=O)/C=C/c1ccccc1)O[C@H](C)[C@H](OC(C)=O)[C@@H]3O [analogue 22] |  | 48–64% | 70 |  | 
 |  | C=CCCCC(=O)CCC(=O)OCC1OC(OC2C(OC(CC=C)CCCCC)OC(C)C(OC(C)=O)C2O)C(O)C(OC(=O)C(C)=CC)C1OC(=O)C(C)=CC (centres unmarked) [analogue 10] | 2740 |  |  |  | 
 |  | C=CCCCC(=O)CCC(=O)OCC1OC(OC2C(OC(CC=C)CCCCC)OC(C)C(OC(C)=O)C2O)C(O)C(O)C1OC(=O)C=Cc1ccccc1 (centres unmarked) [analogue 11] | 6320 |  |  |  | 
 |  | C=CCCCC(=O)CCC(=O)OCC1OC(OC2C(OC(CC=C)CCCCC)OC(C)C(OC(C)=O)C2O)C(O)C(OC(=O)C(C)=CC)C1OC(=O)c1ccccc1 (centres unmarked) [analogue 8] | 4610 |  |  |  | 
efficiently, albeit variably, inhibited | 202 | C/C=C(\C)C(=O)O[C@@H]1[C@@H](O)[C@H](O[C@H]2[C@H](O[C@H](CCC)CCCCC)O[C@H](C)[C@H](OC(C)=O)[C@@H]2O)O[C@H](COC(=O)CCC(=O)CCCCC)[C@H]1OC(=O)/C=C/c1ccccc1 [analogue 2] |  | 48–64% | 41 |  | reduction in Ii membrane integration [1]: 73–86%
 |  | C#CCOc1ccc(C=CC(=O)OC2C(COC(=O)CCC(=O)CCCC=C)OC(OC3C(OC(CC=C)CCCCC)OC(C)C(OC(C)=O)C3O)C(O)C2OC(=O)C(C)=CC)cc1 (centres unmarked) [analogue 4] | 168 ± 19 |  |  | ~168 | loss in activity when compared to 1 (MDA-MB-231 cells; MDA-MB-231 cells IC50): 3–4 fold
 |  | C=CCCCC(=O)CCC(=O)OCC1OC(OC2C(OC(CC=C)CCCCC)OC(C)C(O)C2O)C(O)C(OC(=O)C(C)=CC)C1OC(=O)C=Cc1ccccc1 (centres unmarked) [analogue 7] | 3880 |  |  |  | 
efficiently, albeit variably, inhibited | 562 | C=CCCCC(=O)CCC(=O)OC[C@H]1O[C@@H](O[C@H]2[C@H](O[C@H](CC=C)CCCCC)O[C@H](C)[C@H](OC(C)=O)[C@@H]2O)[C@H](O)[C@@H](OC(=O)/C(C)=C/C)[C@@H]1OC(=O)/C=C/c1ccccc1 [analogue 1] | 59 ± 8.1 | 48–64% | 170 | ~60 | GI50 (NCI 60-cell line; NCI 60-cell line screening, average over cell lines): ~135 nM; loss in potency when compared to Ipom-F (NCI 60-cell line; NCI 60-cell line average GI50): 4–5 fold; loss in potency when compared to Ipom-F (MDA-MB-231 cells; MDA-MB-231 cells IC50): 9 fold
efficiently, albeit variably, inhibited | 291 | C=CCCN(C)C(=O)CCC(=O)OCC1OC(OC2C(OC(CC=C)CCCCC)OC(C)C(OC(C)=O)C2O)C(O)C(OC(=O)C(C)=CC)C1OC(=O)C=Cc1ccccc1 (centres unmarked) [analogue 5] | 43 ± 11 | 48–64% | 41 | ~43 | reduction in Ii membrane integration [1]: 73–86%
 |  | C=CCCCC(=O)CCC(=O)OCC1OC(OC2C(OC(CC=C)CCCCC)OC(C)C(OC(C)=O)C2O)C(O)C(OC(=O)C(C)=CC)C1OC(=O)CCc1ccccc1 (centres unmarked) [analogue 9] | 2170 |  |  |  | 

SMILES | inhibition of in vitro membrane integration of Ii [1] | IC50 [1, 3] [nM] | IC50 (MDA-MB-231 cells; [2]) [nM] | cell death (HCT116 Sec61α-WT cells; HCT116 Sec61α-WT cells) | IC50 (HCT116 Sec61α-WT cells; [4]) [nM] | IC50 (MDA-MB-231 cells; [5]) [nM] | other results
C=CCCCCCCC(=O)OCC1OC(OC2C(OC(CC=C)CCCCC)OC(C)C(OC(C)=O)C2O)C(O)C(OC(=O)C(C)=CC)C1OC(=O)C=Cc1ccccc1 (centres unmarked) [analogue 6] | did not; also recorded: negligible inhibition |  | 205 ± 11 | ~ 20% |  | ~205 | loss in activity when compared to 1 (MDA-MB-231 cells; MDA-MB-231 cells IC50): 3–4 fold
C/C=C(\C)C(=O)O[C@@H]1[C@@H](O)[C@@H]2O[C@H]3[C@H](O[C@@H](CCCCC)CCCCCCC(=O)CCC(=O)OC[C@@H](O2)[C@H]1OC(=O)/C=C/c1ccccc1)O[C@H](C)[C@H](OC(C)=O)[C@@H]3O [Ipom-F, ipomoeassin F] | efficiently, albeit variably, inhibited |  |  | 48–64% |  |  | GI50 (NCI 60-cell line; 60 cell): ~30 nM; IC50 (MDA-MB-231 cells; MDA-MB-231, 72 h, read-out: IC50 (cytotoxicity)): ~7 nM; IC50 (MDA-MB-231 cells; MDA-MB-231, read-out: IC50 ± SD, ring-closed): 6.5 ± 0.4 nM; IC50 [1]: 155 nM; reduction in Ii membrane integration [1]: 73–86%; IC50 (HCT116 Sec61α-WT cells; HCT-116, read-out: Cytotoxicity HCT-116 Cells (IC50)): 18 nM
